{"source": "patent US5679671A", "about": "“Amino acid derivative” (Eisai Co., Ltd., priority 1993, dated 1997)", "key": {"[1]": {"molecular_target": "T1, ACE (Rattus norvegicus, UniProt P47820)", "T1 construct": "membrane fraction prepared from rat lung; from tissue; host or cells: rat lung, membrane fraction (method of Wu-Wong et al.)", "T1 sequence (P47820 36-1313)": "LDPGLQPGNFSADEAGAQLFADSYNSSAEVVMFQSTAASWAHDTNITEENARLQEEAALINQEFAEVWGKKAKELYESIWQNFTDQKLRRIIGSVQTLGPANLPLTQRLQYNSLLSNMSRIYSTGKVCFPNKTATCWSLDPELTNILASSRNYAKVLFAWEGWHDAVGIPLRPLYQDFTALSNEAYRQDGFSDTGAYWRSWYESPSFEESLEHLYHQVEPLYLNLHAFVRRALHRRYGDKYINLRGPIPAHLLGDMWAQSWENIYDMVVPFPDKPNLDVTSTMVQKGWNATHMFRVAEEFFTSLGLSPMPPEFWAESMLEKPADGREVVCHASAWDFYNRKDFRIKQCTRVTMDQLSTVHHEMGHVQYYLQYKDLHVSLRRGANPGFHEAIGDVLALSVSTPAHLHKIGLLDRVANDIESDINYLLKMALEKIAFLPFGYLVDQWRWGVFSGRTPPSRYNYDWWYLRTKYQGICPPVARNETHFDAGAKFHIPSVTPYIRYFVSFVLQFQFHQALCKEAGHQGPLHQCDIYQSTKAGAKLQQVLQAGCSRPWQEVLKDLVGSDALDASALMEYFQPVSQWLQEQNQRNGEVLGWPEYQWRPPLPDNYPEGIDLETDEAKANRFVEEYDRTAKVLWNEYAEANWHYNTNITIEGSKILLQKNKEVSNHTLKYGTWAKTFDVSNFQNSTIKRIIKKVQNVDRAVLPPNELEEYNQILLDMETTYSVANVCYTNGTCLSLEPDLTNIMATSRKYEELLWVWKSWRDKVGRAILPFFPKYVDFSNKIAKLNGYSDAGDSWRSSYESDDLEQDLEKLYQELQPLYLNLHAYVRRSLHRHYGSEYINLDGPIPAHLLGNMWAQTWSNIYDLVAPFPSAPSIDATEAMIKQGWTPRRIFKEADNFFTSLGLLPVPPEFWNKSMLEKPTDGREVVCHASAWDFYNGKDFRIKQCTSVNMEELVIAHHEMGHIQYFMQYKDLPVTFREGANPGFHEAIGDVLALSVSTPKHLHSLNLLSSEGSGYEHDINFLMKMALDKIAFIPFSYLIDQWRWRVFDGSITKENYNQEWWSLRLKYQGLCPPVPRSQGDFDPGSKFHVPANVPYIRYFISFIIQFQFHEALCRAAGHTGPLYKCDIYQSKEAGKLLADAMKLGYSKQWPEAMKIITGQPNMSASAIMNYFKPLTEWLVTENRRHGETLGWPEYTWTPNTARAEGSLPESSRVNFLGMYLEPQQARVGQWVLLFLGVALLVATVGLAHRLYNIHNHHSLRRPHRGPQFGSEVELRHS", "test": "ACE inhibition activity (Experiment D-1)", "assay_type": "biochemical", "conditions": "rat lung membrane fraction, pH 8.3", "protocol": "As a source of the enzyme ACE, a membrane fraction prepared from rat lung in accordance with the method of Wu-Wong et al. (Characterization of Endthelin Converting Enzyme in Rat Lung., Junshyum R. Wu-Wong, Gerald, P. Budzik, Edward M. Devine and Terry J. Opgenorth, Biochem. Biophys. Res. Commun., 1990, 171, 1291-1296.) was used. The ACE activity was determined with the use of a modification (modified to a borate buffer, pH 8.3) of the method of Cushman and Cheung (Spectrophotometric Assay and Properties of the Angiotensin-Converting Enzyme of Rabbit Lung., Cushman D. W. and Cheung H. S., 1971, 20, 1637-1648.). Now the procedure will be briefly described.\nIn the presence of ACE, the hippurate liberated from hippuryl-histidine-leucine (Hippuryl-His-Leu (Peptide Institute Inc., Japan)) was extracted with ethyl acetate and then the absorbance was measured at a wavelength of 228 nm.\n(§1) To determine the NEP inhibition activity and the ACE inhibition activity, the inhibitor was added to the assay systems of both enzyme activities as described above in such a manner as to give the final concentrations of 1, 3, 10, 30, 100, 300 and 1000 nM and inhibition curves were prepared. Then the concentration at which 50% inhibition was achieved was taken as IC50."}, "[2]": {"molecular_target": "T2, NEP (Rattus norvegicus, UniProt P07861)", "T2 sequence (P07861 1-750)": "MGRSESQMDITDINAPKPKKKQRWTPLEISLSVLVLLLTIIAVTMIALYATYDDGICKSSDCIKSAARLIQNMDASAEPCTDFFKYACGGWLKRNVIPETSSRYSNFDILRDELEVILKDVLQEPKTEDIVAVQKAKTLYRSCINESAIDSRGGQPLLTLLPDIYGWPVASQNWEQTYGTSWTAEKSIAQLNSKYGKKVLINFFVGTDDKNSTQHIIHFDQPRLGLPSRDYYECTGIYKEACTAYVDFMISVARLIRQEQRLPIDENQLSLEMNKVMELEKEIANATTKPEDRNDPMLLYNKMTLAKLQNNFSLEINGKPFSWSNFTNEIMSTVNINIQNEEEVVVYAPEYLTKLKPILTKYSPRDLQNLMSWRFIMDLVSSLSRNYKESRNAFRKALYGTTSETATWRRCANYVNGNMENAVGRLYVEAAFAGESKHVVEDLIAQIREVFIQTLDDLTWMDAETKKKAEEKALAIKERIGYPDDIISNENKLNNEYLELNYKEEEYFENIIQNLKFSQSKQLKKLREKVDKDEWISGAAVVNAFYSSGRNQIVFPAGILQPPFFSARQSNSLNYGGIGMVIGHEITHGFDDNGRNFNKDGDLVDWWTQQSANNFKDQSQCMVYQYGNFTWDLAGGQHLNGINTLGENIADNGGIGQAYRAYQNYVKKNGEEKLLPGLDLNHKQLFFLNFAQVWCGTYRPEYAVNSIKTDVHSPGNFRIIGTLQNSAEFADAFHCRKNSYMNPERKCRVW", "test": "NEP inhibition activity (Experiment D-1)", "assay_type": "biochemical", "design": "membrane fraction prepared from rat renal cortex; from tissue; host or cells: rat renal cortex, membrane fraction (method of Booth and Kenny)", "conditions": "rat renal cortex membrane fraction", "protocol": "As a source of the enzyme NEP, a membrane fraction prepared from rat renal cortex in accordance with the method of Booth and Kenny (A Rapid Method for the Purification of Microvilli from Rabbit Kidney., Andrew G. Booth and A. John Kenny, Biochem. j., 1974, 142, 575-581.) was employed. The NEP activity was determined in accordance with the method of Orlowsky and Wilk (Purification and Specificity of a Membrane-Bound Metalloendpeptidase from Bovine Pituitaries., Marian Orlowsky and Shrwin Wilk, Biochemistry, 1981, 20, 4942-4950.). Now the procedure will be briefly described.\nAs a substrate, benzoyl-glycine-arginine-arginine-2-naphthylamide benzoyl-Gly-Arg-Arg-2-naphthylamide (Nova Biochem, Switzerland)) was used. In the presence of an NEP enzyme preparation and excessive leucine aminopeptidase (sigma chemical Co., U.S.A.), the liberated naphthylamine was made to undergo color development with first garnet (Sigma chemical Co., U.S.A.), followed by the measurement of the absorbance at a wavelength of 540 nm.\nas §1"}, "[3]": {"test_system": "SHR", "test": "Hypotensive effect on SHR, i.v. (Experiment D-2)", "assay_type": "in vivo, Spontaneously hypertensive rats", "protocol": "(§2) Spontaneously hypertensive rats (SHR) aged 15 to 20 weeks were anesthetized by intraperitoneally administering thiopental sodium (50 mg/kg). The depth of anesthesia was maintained by optionally effecting supplemental anesthesia (5 mg/kg, i.v.). Catheters were inserted into the left common carotid artery and the vein respectively for the measurement of blood pressure and for the administration of a medicament. The cardiac rate was counted by using blood pressure as a trigger.\nWhen the blood pressure became stable after the completion of the operation, the comparative compound or the compound of Example 9 was intravenously administered in doses of 0.1, 0.3 and 1.0 mg/kg and changes in blood pressure and cardiac rate were measured. Following the administration, the measurement was effected for 10 minutes in the cases of 0.1 and 0.3 mg/kg or for 30 minutes in the case of 1.0 mg/kg."}, "[4]": {"test_system": "SHR", "test": "Hypotensive effect on SHR, i.v. (Experiment C-5)", "assay_type": "in vivo, rat (SHR)", "protocol": "as §2, with “SHRs” for “Spontaneously hypertensive rats (SHR)”\nWhen the blood pressure became stable after the completion of the operation, the comparative compound was intravenously administered in 0.1, 0.3 and 1.0 mg/kg and changes in blood pressure and cardiac rate were measured. Following the administration, the measurement was effected for 10 minutes in the cases of 0.1 and 0.3 mg/kg or for 30 minutes in the case of 1.0 mg/kg. The invention compound was intravenously administered in 0.03, 0.1 and 0.3 mg/kg and the measurement was effected for 10 minutes after the administration in the cases of 0.03 and 0.1 mg/kg or for 30 minutes after the administration in the case of 0.3 mg/kg."}, "[5]": {"test_system": "SHR", "test": "Hypotensive effect on SHR through intravenous administration (separate experiment)", "assay_type": "in vivo", "conditions": "Rattus norvegicus, read-out: dose to decrease the blood pressure by 10%", "description": "In addition to the above-mentioned Pharmacological Experiment Examples, an experiment was separately effected with the use of SHR for examining hypotensive effects through intravenous administration. As the result, in the comparison of the conventionally known double inhibitors (1) [S-(R*,R*)]-2,3,4,5-tetrahydro-3-[(2-mercapto-[…])amino]-2-oxo-1H-benzazepine-1-acetic acid and (2) [S-(R*,R*)]-2,3,4,5-tetrahydro-3-[(2-mercapto-1-oxo-4-methylpentyl)amino]- 2-oxo-1H-benzazepine-1-acetic acid with the compounds of the present invention, Example C-8 and Example C-10, the inhibitors (1) and (2) should be administered each in a dose of 1.0 mg/kg to decrease the blood pressure by 10%, whereas the administration of 0.03 to 0.1 mg/kg of the compound of Example C-8 and the administration of 0.1 to 0.3 mg/kg of the compound of Example C-10 each achieved the same effect."}, "[6]": {"conditions": "within 30 minutes after i.v. administration"}}}
{"smiles": "COc1ccc(CC(S)C(=O)N[C@H]2Cc3ccccc3[C@H]3SC[C@H](C(=O)O)N3C2=O)cc1", "note": "(stereo partly drawn) [Comp. cpd.*^1]", "values": [{"measurement": "IC50", "setting": "[1]", "result": 11, "unit": "nM"}, {"measurement": "IC50", "setting": "[2]", "result": 14, "unit": "nM"}]}
{"smiles": "CS(=O)(=O)Nc1ccc2c(c1)[C@H]1CCC[C@@H](C(=O)O)N1C(=O)[C@@H](NC(=O)[C@@H](S)Cc1ccccc1)C2", "note": "[Example D-5, [4S-[4α,7α(R*),12bβ]]-11-methylsulfonylamino7-[[(S)-2-mercapto-3-phenyl-1-oxopropyl)amino-6-oxo-1,2,3,4,6,7,8,12b-octahydropyrido-[2,1-a][2]benzazepine-4-carboxylic acid]", "values": [{"measurement": "IC50", "setting": "[1]", "result": 17, "unit": "nM"}, {"measurement": "IC50", "setting": "[2]", "result": 33, "unit": "nM"}]}
{"smiles": "COc1ccc(C[C@H](S)C(=O)N[C@H]2Cc3ccc(NS(C)(=O)=O)cc3[C@H]3CCC[C@@H](C(=O)O)N3C2=O)cc1", "note": "[Example D-6, [4S-[4α,7α(R*),12bβ]]-11-methylsulfonylamino-7-[[(S)-2-mercapto-3-(4-methoxyphenyl)-1-oxopropyl]amino-6-oxo-1,2,3,4,6,7,8,12b-octahydropyrido-[2,1-a][2]benzazepine-4-carboxylic acid]", "values": [{"measurement": "IC50", "setting": "[1]", "result": 12, "unit": "nM"}, {"measurement": "decrease in blood pressure / hypotensive effect", "setting": "[3]; 1.0 mg/kg i.v.", "result": 25, "unit": "%"}, {"measurement": "cardiac rate", "setting": "[3]; SHR, i.v.", "result": "tended to gradually decrease"}, {"measurement": "hypotensive effect on SHR relative to the comparative compound", "setting": "[3]; SHR, i.v.", "result": "about three times that of the comparative compound"}, {"measurement": "IC50", "setting": "[2]", "result": 38, "unit": "nM"}]}
{"smiles": "O=C(N[C@H]1Cc2ccccc2[C@H]2CCC[C@@H](C(=O)O)N2C1=O)[C@@H](S)Cc1ccccc1", "note": "[comparative compound, reference compound]", "values": [{"measurement": "cardiac rate", "setting": "[3]; SHR, i.v.", "result": "tended to gradually decrease"}, {"measurement": "return of blood pressure", "setting": "[3]; [6]", "result": "did not return within 30 minutes"}, {"measurement": "cardiac rate", "setting": "[4]; SHR, i.v.", "result": "tended to gradually decrease"}, {"measurement": "return of blood pressure", "setting": "[4]; [6]", "result": "did not return within 30 minutes"}]}
{"smiles": "O=C(O)CN1C(=O)[C@@H](NC(=O)[C@@H](S)Cc2ccccc2)CCc2ccccc21", "note": "[inhibitor (1)]", "values": [{"measurement": "ED (10% decrease in blood pressure)", "setting": "[5]", "result": 1, "unit": "mg/kg"}]}
{"smiles": "CC(C)C[C@H](S)C(=O)N[C@H]1CCc2ccccc2N(CC(=O)O)C1=O", "note": "[inhibitor (2), [S-(R*,R*)]-2,3,4,5-tetrahydro-3-[(2-mercapto-1-oxo-4-methylpentyl)amino]-2-oxo-1H-benzazepine-1-acetic acid]", "values": [{"measurement": "ED (10% decrease in blood pressure)", "setting": "[5]", "result": 1, "unit": "mg/kg"}]}
